Test results taken from patent publication US5326883A, “Oxime ether derivatives having lipoxygenase inhibitory activity” (Abbott Laboratories, priority 1992, dated 1994).

These compounds were tested on biosynthesis of leukotrienes (assay: Inhibition of leukotriene biosynthesis in vivo, rat peritoneal anaphylaxis model, oral). Conditions: Oral Dose at 30 μmol/kg, gavage one hour prior to antigen challenge; rat peritoneal fluid 15 min after challenge.
Method: Inhibition of the biosynthesis of leuktrienes in vivo after oral administration of compound was determined using a rat peritoneal anaphylaxis model in a similar manner as that described by Young and coworkers (Young, P. R.; Dyer, R. D.; Carter, G. W. Fed. Proc., Fed. Am. Soc. Exp. Biol. 1985, 44, 1185). In this model rats were injected intraperitoneally (ip) with rabbit antibody to bovine serum albumin (BSA) and three hours later injected ip with BSA to induce an antgen-antibody response. Rats were sacrificed 15 minutes after this challenge and the peritoneal fluids were collected and analyzed for leukotriene levels. Test compounds were administered by gavage one hour prior to the antigen challenge. Percent inhibition values were determined by comparing the treatment group to the mean of the control group.
In the case of `CC(CO/N=C\c1ccc(Oc2ccc(F)cc2)o1)N(O)C(N)=O` (stereo not shown) [Example 6, 5-(4-fluorophenoxy)fur-2-ylmethyl-Z-oximyl-O-2-(1-methyl)ethyl-N-hydroxyurea], the “% Inhibition of Leukotrienes” value is reported as 70%.
In the case of `CC(CO/N=C/c1ccc(Oc2ccc(F)cc2)o1)N(O)C(N)=O` (stereo not shown) [Example 7, 5-(4-fluorophenoxy)fur-2-ylmethyl-E-oximyl-O-2-(1-methyl)ethyl-N-hydroxyurea], the “% Inhibition of Leukotrienes” value is reported as 56%.
With `CC(CN(O)C(N)=O)O/N=C\c1ccc(Oc2ccc(F)cc2)o1` (stereo not shown) [Example 9, 5-(4-fluorophenoxy)fur-2-ylmethyl-Z-oximyl-O-2-(2-methyl)ethyl-N-hydroxyurea] the “% Inhibition of Leukotrienes” value was 64%.

The compounds below were run against T1, 5-Lipoxygenase (Homo sapiens, UniProt P09917) (assay: Calcium ionophore-induced LTB4 biosynthesis in human whole blood (5-lipoxygenase inhibition)). Conditions: human heparinized whole blood; 15 min preincubation at 37° C; A23187 8.3 μM, 30 min; LTB4 by radioimmunoassay.
T1 construct: Human heparinized whole blood was preincubated with test compounds or vehicle for 15 min; endogenous in cells; host or cells: human heparinized whole blood (blood leukocytes)
T1 sequence (P09917 1-674): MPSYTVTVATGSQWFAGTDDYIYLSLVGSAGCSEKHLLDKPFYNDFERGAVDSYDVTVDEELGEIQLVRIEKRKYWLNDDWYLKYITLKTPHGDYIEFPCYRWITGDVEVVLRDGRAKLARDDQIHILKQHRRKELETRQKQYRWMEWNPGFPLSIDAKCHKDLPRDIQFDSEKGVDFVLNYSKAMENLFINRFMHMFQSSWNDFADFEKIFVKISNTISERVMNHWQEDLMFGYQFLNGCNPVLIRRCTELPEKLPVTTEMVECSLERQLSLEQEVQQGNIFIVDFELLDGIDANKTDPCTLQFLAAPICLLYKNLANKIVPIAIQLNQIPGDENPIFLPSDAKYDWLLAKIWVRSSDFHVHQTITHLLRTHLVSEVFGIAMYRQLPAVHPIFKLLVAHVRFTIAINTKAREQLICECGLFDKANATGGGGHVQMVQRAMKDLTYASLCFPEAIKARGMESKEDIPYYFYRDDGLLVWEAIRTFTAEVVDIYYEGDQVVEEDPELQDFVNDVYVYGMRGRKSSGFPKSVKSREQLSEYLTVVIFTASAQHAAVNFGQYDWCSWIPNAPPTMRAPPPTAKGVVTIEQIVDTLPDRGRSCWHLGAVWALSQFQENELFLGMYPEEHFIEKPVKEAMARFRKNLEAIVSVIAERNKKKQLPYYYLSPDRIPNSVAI
Type: cell-based
Method: Inhibition of leukotriene biosynthesis was evaluated in an assay, involving calcium ionophore-induced LTB4 biosynthesis expressed human whole blood. […] The methanol extract was analyzed for LTB4 using a commercially available radioimmunoassay. |In Vitro Inhibitory Potencies of Compounds of this Invention […] |in Human Whole Blood
Compound `CCCCCC=NOCCN(O)C(N)=O` [Example 2, hexyloximyl-O-2-ethyl-N-hydroxyurea] has an IC50 of 100 nM.
Compound `CC(=NOCCN(O)C(N)=O)c1cc2ccccc2s1` [Example 1, 1-(benzo[b]thien-2-yl)ethyloximyl-O-2-ethyl-N-hydroxyurea] has an IC50 of 100 nM.
`CC(CN(O)C(N)=O)O/N=C/c1ccc(Oc2ccc(F)cc2)o1` (stereo not shown) [Example 8, 5-(4-fluorophenoxy)fur-2-ylmethyl-E-oximyl-O-2-(2-methyl)ethyl-N-hydroxyurea] gave an IC50 of 140 nM.
Work on `NC(=O)N(O)CCON=Cc1ccc(Sc2ccccc2)o1` [Example 10, 5-(phenylthio)fur-2-ylmethyloximyl-O-2-ethyl-N-hydroxyurea] yielded an IC50 of 100 nM.
`NC(=O)N(O)CCON=Cc1cccn1Cc1ccc(Cl)cc1` [Example 3, 1-(4-chlorobenzyl)-pyrro-2-ylmethyloximyl-O-2-ethyl-N-hydroxyurea] was tested, and the IC50 was 160 nM.
Work on `CC(CN(O)C(N)=O)O/N=C\c1ccc(Oc2ccc(F)cc2)o1` (stereo not shown) [Example 9, 5-(4-fluorophenoxy)fur-2-ylmethyl-Z-oximyl-O-2-(2-methyl)ethyl-N-hydroxyurea] yielded an IC50 of 100 nM.
`NC(=O)N(O)CCON=Cc1cccc(Oc2ccc(F)cc2)c1` [Example 4, 3-(4-fluorophenoxy)phenylmethyloximyl-O-2-ethyl-N-hydroxyurea] showed an IC50 of 100 nM.
